These results are taken from patent publication US20160122342A1, “ENHANCER OF ZESTE HOMOLOG 2 INHIBITORS” (GLAXOSMITHKLINE INTELLECTUAL PROPERTY (NO.2) LIMITED, priority 2013, published 2016).

The structures appear in SMILES notation. pIC50: −log10 of the molar value. Where a name gives a salt, the structure may show the parent alone.

The target of this assay is T1, EZH2 within the PRC2 complex (Homo sapiens, UniProt Q15910).
T1 construct: FLAG; made in house; host or cells: Sf9 cells
T1 sequence (Q15910 whole entry): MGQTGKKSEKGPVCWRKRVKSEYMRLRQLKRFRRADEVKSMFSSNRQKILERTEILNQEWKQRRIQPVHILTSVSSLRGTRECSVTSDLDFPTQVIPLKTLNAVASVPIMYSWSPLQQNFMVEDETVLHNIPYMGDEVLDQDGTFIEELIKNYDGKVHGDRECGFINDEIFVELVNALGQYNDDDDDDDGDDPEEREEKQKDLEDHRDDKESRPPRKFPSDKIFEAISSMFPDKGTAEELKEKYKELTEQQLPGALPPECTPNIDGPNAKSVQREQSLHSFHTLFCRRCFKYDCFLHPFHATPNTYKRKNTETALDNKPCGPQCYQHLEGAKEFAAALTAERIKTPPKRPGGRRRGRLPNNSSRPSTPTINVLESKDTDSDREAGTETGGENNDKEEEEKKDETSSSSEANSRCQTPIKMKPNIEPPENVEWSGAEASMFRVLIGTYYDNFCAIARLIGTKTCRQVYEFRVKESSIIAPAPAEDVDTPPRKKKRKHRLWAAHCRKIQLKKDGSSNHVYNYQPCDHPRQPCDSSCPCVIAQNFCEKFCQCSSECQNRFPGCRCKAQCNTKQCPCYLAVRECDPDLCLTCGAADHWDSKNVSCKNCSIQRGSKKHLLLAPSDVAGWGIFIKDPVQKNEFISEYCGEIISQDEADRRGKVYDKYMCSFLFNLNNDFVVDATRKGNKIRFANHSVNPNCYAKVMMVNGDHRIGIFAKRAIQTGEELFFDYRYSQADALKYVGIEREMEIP
T1 sequence (O75530 whole entry partner): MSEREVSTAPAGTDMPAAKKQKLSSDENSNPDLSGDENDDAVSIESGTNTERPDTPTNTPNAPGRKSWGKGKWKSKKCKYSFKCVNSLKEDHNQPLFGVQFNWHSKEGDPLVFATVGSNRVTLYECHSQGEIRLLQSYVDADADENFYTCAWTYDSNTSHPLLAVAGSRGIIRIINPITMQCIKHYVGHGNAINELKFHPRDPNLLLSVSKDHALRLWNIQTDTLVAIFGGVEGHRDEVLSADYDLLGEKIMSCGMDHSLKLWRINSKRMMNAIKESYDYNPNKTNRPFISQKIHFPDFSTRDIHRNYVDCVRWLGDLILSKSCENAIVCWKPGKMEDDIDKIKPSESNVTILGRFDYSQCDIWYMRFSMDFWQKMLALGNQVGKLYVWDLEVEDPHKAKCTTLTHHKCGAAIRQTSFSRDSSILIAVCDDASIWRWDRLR
T1 sequence (Q15022 whole entry partner): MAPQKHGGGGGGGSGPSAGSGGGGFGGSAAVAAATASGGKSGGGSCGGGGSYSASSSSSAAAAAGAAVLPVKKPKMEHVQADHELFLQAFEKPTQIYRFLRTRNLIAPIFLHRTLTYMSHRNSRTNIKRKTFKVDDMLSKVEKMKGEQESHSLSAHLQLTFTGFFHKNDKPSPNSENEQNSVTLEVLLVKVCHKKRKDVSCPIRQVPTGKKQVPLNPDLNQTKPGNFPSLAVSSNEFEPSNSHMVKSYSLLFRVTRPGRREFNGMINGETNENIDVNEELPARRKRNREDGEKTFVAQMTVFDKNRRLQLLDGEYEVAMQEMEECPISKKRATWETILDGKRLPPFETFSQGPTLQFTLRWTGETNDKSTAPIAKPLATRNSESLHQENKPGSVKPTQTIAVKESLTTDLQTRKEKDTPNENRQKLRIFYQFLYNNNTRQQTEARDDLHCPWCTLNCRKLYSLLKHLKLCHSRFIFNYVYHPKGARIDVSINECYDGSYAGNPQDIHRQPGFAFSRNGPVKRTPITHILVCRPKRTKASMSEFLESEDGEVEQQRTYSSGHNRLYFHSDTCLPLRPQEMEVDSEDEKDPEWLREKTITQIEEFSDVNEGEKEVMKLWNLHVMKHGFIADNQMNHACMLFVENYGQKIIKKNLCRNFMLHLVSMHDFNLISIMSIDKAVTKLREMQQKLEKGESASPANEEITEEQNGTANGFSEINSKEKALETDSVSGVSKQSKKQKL
T1 sequence (Q09028 whole entry partner): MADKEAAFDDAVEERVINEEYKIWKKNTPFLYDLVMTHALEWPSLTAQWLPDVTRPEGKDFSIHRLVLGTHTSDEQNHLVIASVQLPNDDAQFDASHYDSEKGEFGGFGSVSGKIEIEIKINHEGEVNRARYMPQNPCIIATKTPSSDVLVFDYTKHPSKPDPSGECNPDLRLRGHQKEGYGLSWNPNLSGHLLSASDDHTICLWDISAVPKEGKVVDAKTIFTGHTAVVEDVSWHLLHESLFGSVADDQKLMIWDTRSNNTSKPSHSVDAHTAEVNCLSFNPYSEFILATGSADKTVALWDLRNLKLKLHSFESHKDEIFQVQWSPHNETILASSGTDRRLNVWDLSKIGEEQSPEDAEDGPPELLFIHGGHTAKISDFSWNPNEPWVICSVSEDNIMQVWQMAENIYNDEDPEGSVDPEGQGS
T1 sequence (Q6ZN18 whole entry partner): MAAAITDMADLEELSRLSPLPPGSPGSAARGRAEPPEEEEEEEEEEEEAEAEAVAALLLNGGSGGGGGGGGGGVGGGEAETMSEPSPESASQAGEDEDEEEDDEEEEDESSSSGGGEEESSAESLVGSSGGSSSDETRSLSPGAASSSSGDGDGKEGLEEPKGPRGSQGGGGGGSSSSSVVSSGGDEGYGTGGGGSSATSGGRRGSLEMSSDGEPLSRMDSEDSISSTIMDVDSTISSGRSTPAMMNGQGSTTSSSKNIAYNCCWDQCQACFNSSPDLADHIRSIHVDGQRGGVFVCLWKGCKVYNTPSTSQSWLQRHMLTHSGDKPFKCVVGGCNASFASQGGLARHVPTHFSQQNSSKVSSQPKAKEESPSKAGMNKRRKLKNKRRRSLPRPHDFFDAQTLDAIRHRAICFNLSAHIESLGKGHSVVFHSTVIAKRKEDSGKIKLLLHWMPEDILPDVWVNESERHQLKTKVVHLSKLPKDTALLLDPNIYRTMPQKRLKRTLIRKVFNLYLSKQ
Nature of the assay: Assay Protocol 2: EZH2 methyltransferase scintillation proximity assay, biotinylated histone H3 peptide substrate. Format: biochemical. The note with it: SPA, 3H-SAM, biotinylated unmethylated histone H3K27 peptide substrate, 5-member PRC2 complex. Here is the method:
Compounds contained herein were evaluated for their ability to inhibit the methyltransferase activity of EZH2 within the PRC2 complex. […] The peptides were captured on streptavidin-coated SPA beads and the resulting signal was read on a ViewLux plate reader. • 4. Prepare 10 mM stock of compounds from solid in 100% DMSO. • 5. […] Dispense 10 nL of compound from the dilution plate into reaction plates (Corning, 384-well polystyrene NBS, Cat#3673). Prepare the following solutions: • 7. 1× Base Buffer, 50 mM Tris-HCl, pH 8, 2 mM MgCl2: Per 1 L of base buffer, combine 1 M Tris-HCl, pH 8 (50 mL), 1 M MgCl2 (2 mL), and distilled water (948 mL). • 8. 1× Assay Buffer: Per 10 mL of 1× Assay Buffer, combine 1× Base Buffer (9.96 mL), 1 M DTT (40 uL), and 10% Tween-20 (1 uL) to provide a final concentration of 50 mM Tris-HCl, pH 8, 2 mM MgCl2, 4 mM DTT, 0.001% Tween-20. • 9. 2× Enzyme Solution: […] SPA Bead Solution: Per 1 mL of SPA Bead Solution, combine Streptavidin coated SPA beads (PerkinElmer, Cat# RPNQ0261, 40 mg) and 1× Assay Buffer (1 mL) to provide a working concentration of 40 mg/mL. • 11. 2× Substrate Solution: Per 10 mL of 2× Substrate Solution, combine 40 mg/mL SPA Bead Solution (375 uL), 1 mM biotinylated histone H3K27 peptide (200 uL), 12.5 uM 3H-SAM (240 uL; 1 mCi/mL), 1 mM cold SAM (57 uL), and 1× Assay Buffer (9.13 mL) to provide a final concentration of 0.75 mg/mL SPA Bead Solution, 10 uM biotinylated histone H3K27 peptide, 0.15 uM 3H-SAM (˜12 uCi/mL 3H-SAM), and 2.85 uM cold SAM. • 12. 2.67× Quench Solution: Per 10 mL of 2.67× Quench Solution, combine 1× Assay Buffer (9.73 mL) and 10 mM cold SAM (267 uL) to provide a final concentration of 100 uM cold SAM. • 3. […] Dispense 5 uL/well of 1× Assay Buffer to column 18 (low control reactions). • 11. Dispense 5 uL/well of 2× Substrate Solution to columns 1-24 (note: substrate solution should be mixed to ensure homogeneous bead suspension before dispensing into matrix reservoir). • 12. Dispense 5 uL/well of 2× Enzyme Solution to columns 1-17, 19-24. • 13. Incubate the reaction for 60 min at room temperature. • 5. Dispense 6 uL/well of the 2.67× Quench Solution to columns 1-24. • 6. Seal assay plates and spin for ˜1 min at 500 rpm. • 7. Dark adapt plates in the ViewLux instrument for 15-60 min. • 2. Read the assay plates on the Viewlux Plate Reader utilizing the 613 nm emission filter or clear filter (300 s exposure). Reagent addition can be done manually or with automated liquid handler. Percent inhibition was calculated relative to the DMSO control for each compound concentration and the resulting values were fit using standard IC50 fitting parameters within the ABASE data fitting software package.
(In general: SPA uses beads or plates that emit light when radiolabelled molecules are held near them.)
As a reminder, the pIC50 is the IC50 on a negative log10 scale, so that one unit is a factor of ten. A lower pIC50 goes with a large IC50. As to `CCN(c1cccc2c1C/C=C/CCc1cc(C)[nH]c(=O)c1CNC2=O)[C@H]1CC[C@H](NCC(F)(F)F)CC1` [Example 58, (E)-10-(ethyl(trans-4-((2,2,2-trifluoroethyl)amino)cyclohexyl)amino)-3-methyl-5,6,15,16-tetrahydrobenzo[c]pyrido[4,3-j][1]azacyclododecine-1,14(2H,9H)-dione], the pIC50 is 6.80. The same measure for `CCN(c1cccc2c1C/C=C/CCc1cc(C)[nH]c(=O)c1CNC2=O)[C@H]1CC[C@H](N(C)CC(F)(F)F)CC1` [Example 59, (E)-10-(ethyl(trans-4-(methyl(2,2,2-trifluoroethyl)amino)cyclohexyl)amino)-3-methyl-5,6,15,16-tetrahydrobenzo[c]pyrido[4,3-j][1]azacyclododecine-1,14(2H,9H)-dione]: 6.50. The same measure for `CCN(c1cccc2c1C/C=C/CCc1cc(C)[nH]c(=O)c1CNC2=O)[C@H]1CC[C@H](N2CCC2)CC1` [Example 60, (E)-10-((trans-4-(azetidin-1-yl)cyclohexyl)(ethyl)amino)-3-methyl-5,6,15,16-tetrahydrobenzo[c]pyrido[4,3-j][1]azacyclododecine-1,14(2H,9H)-dione]: 5.90; for `CCN(c1cccc2c1C/C=C\Cc1cc(C)[nH]c(=O)c1CNC2=O)[C@H]1CC[C@H](N(C)C)CC1` [Example 61, (Z)-9-((trans-4-(dimethylamino)cyclohexyl)(ethyl)amino)-3-methyl-5,8,14,15-tetrahydro-1H-benzo[c]pyrido[4,3-i][1]azacycloundecine-1,13(2H)-dione]: 6.80; for `CCN(c1cccc2c1CCCCc1cc(C)[nH]c(=O)c1CNC2=O)[C@H]1CC[C@H](N(C)C)CC1` [Example 62, 9-((trans-4-(dimethylamino)cyclohexyl)(ethyl)amino)-3-methyl-5,6,7,8,14,15-hexahydro-1H-benzo[c]pyrido[4,3-i][1]azacycloundecine-1,13(2H)-dione]: 6.60. In turn, `CCN(c1nccc2c1C/C=C/CCc1cc(C)[nH]c(=O)c1CNC2=O)C1CCOCC1` [Example 63, (E)-10-(ethyl(tetrahydro-2H-pyran-4-yl)amino)-3-methyl-5,6,15,16-tetrahydrodipyrido[3,4-c:3′,4′-j][1]azacyclododecine-1,14(2H,9H)-dione] showed a pIC50 of 6.60.

For `Cc1cc2c(c(=O)[nH]1)CNC(=O)c1cccc(N(CCO)C3CCOCC3)c1C/C=C/CC2` [Example 64, (E)-10-((2-hydroxyethyl)(tetrahydro-2H-pyran-4-yl)amino)-3-methyl-5,6,15,16-tetrahydrobenzo[c]pyrido[4,3-j][1]azacyclododecine-1,14(2H,9H)-dione], the negative-log IC50 (pIC50) was 6.60. For `CCN(c1cccc2c1C/C=C/CCc1cc(C)[nH]c(=O)c1CNC2=O)C1CCN(N(C)C)CC1` [Example 65, (E)-10-((1-(dimethylamino)piperidin-4-yl)(ethyl)amino)-3-methyl-5,6,15,16-tetrahydrobenzo[c]pyrido[4,3-j][1]azacyclododecine-1,14(2H,9H)-dione] the value was 6.50; for `CCN(c1cccc2c1C/C=C/CCc1cc(C)[nH]c(=O)c1CNC2=O)C1CCC2(CC1)CNC2` [Example 66, (E)-10-(ethyl(2-azaspiro[3.5]nonan-7-yl)amino)-3-methyl-5,6,15,16-tetrahydrobenzo[c]pyrido[4,3-j][1]azacyclododecine-1,14(2H,9H)-dione], 6.60.

For `CCN(c1cccc2c1C/C=C/CCc1cc(C)[nH]c(=O)c1CNC2=O)C1CCC2(CC1)CN(C)C2` [Example 67, (E)-10-(ethyl(2-methyl-2-azaspiro[3.5]nonan-7-yl)amino)-3-methyl-5,6,15,16-tetrahydrobenzo[c]pyrido[4,3-j][1]azacyclododecine-1,14(2H,9H)-dione], the pIC50 is 7.00.

On to `CCN(c1cccc2c1C/C=C/CCc1cc(C)[nH]c(=O)c1CNC2=O)C1CC2(CCNCC2)C1` [Example 68, (E)-10-(ethyl(7-azaspiro[3.5]nonan-2-yl)amino)-3-methyl-5,6,15,16-tetrahydrobenzo[c]pyrido[4,3-j][1]azacyclododecine-1,14(2H,9H)-dione], for which the pIC50 was 6.90.

Consider `CCN(c1cccc2c1C/C=C/CCc1cc(C)[nH]c(=O)c1CNC2=O)C1CC2(CCN(C)CC2)C1` [Example 69, (E)-10-(ethyl(7-methyl-7-azaspiro[3.5]nonan-2-yl)amino)-3-methyl-5,6,15,16-tetrahydrobenzo[c]pyrido[4,3-j][1]azacyclododecine-1,14(2H,9H)-dione], for which the pIC50 was 6.80. The same measure for `CCN(c1cccc2c1C/C=C/CCc1cc(C)[nH]c(=O)c1CNC2=O)C1CC2(CC(N)C2)C1` (stereo not drawn) [Example 70, (E)-10-((6-aminospiro[3.3]heptan-2-yl)(ethyl)amino)-3-methyl-5,6,15,16-tetrahydrobenzo[c]pyrido[4,3-j][1]azacyclododecine-1,14(2H,9H)-dione]: 6.90; for `CCN(c1cccc2c1C/C=C/CCc1cc(C)[nH]c(=O)c1CNC2=O)C1CC2(CC(N(C)C)C2)C1` (stereo not drawn) [Example 71, (E)-10-((6-(dimethylamino)spiro[3.3]heptan-2-yl)(ethyl)amino)-3-methyl-5,6,15,16-tetrahydrobenzo[c]pyrido[4,3-j][1]azacyclododecine-1,14(2H,9H)-dione]: 6.60. The same measure for `CCN(c1cccc2c1C/C=C/CCc1cc(C)[nH]c(=O)c1CNC2=O)C1CC2(C1)CN(C)C2` [Example 72, (E)-10-(ethyl(2-methyl-2-azaspiro[3.3]heptan-6-yl)amino)-3-methyl-5,6,15,16-tetrahydrobenzo[c]pyrido[4,3-j][1]azacyclododecine-1,14(2H,9H)-dione]: 7.10; for `CCN(c1cccc2c1C/C=C/CCc1cc(C)[nH]c(=O)c1CNC2=O)[C@H]1CC[C@H](NC)CC1` [Example 73, (E)-10-(ethyl(trans-4-(methylamino)cyclohexyl)amino)-3-methyl-5,6,15,16-tetrahydrobenzo[c]pyrido[4,3-j][1]azacyclododecine-1,14(2H,9H)-dione formic acid salt]: 6.90.

On to `CCN(c1cccc2c1C/C=C/CCc1cc(C)[nH]c(=O)c1CNC2=O)[C@H]1CC[C@@H](NC)CC1` [Example 74, (E)-10-(ethyl(cis-4-(methylamino)cyclohexyl)amino)-3-methyl-5,6,15,16-tetrahydrobenzo[c]pyrido[4,3-j][1]azacyclododecine-1,14(2H,9H)-dione formic acid salt], for which the pIC50 is 6.80. The same measure for `CCN(c1cccc2c1C/C=C/CCc1cc(C)[nH]c(=O)c1CNC2=O)[C@H]1CC[C@@H](N2CC(F)C2)CC1` [Example 75, (E)-10-(ethyl(cis-4-(3-fluoroazetidin-1-yl)cyclohexyl)amino)-3-methyl-5,6,15,16-tetrahydrobenzo[c]pyrido[4,3-j][1]azacyclododecine-1,14(2H,9H)-dione]: 6.60. For `CCN(c1cccc2c1C/C=C/CCc1cc(C)[nH]c(=O)c1CNC2=O)[C@H]1CC[C@H](N2CC(F)C2)CC1` [Example 76, (E)-10-(ethyl(trans-4-(3-fluoroazetidin-1-yl)cyclohexyl)amino)-3-methyl-5,6,15,16-tetrahydrobenzo[c]pyrido[4,3-j][1]azacyclododecine-1,14(2H,9H)-dione], the pIC50 was 6.90. For `CCN(c1cccc2c1C/C=C/CCc1cc(C)[nH]c(=O)c1CNC2=O)C1CCCNCC1` (stereo not drawn) [Example 77, (E)-10-(azepan-4-yl(ethyl)amino)-3-methyl-5,6,15,16-tetrahydrobenzo[c]pyrido[4,3-j][1]azacyclododecine-1,14(2H,9H)-dione] the value was 6.80. The same measure for `CCN(c1cccc2c1C/C=C/CCc1cc(C)[nH]c(=O)c1CNC2=O)[C@H]1CC[C@@H](O)CC1` [Example 78, (E)-10-(ethyl(cis-4-hydroxycyclohexyl)amino)-3-methyl-5,6,15,16-tetrahydrobenzo[c]pyrido[4,3-j][1]azacyclododecine-1,14(2H,9H)-dione]: 6.80.
